From PubChem BioAssay AID1259407 (Chemical Carcinogenesis Research Information System (CCRIS), 2018)
Activity calls are given as the source filed them. How the calls were made is not given here.

System: CCRIS mutagenicity, Ames/micronucleus/aberration tests
Assay: CCRIS mutagenicity studies
[1] = Test System: AMES SALMONELLA TYPHIMURIUM, Strain/Indicator: TA98, Metabolic Activation: NONE, Method: STANDARD PLATE
[2] = Test System: AMES SALMONELLA TYPHIMURIUM, Strain/Indicator: TA100, Metabolic Activation: NONE, Method: STANDARD PLATE
[3] = Test System: AMES SALMONELLA TYPHIMURIUM, Strain/Indicator: TA100, Metabolic Activation: RAT, LIVER, S-9, AROCLOR 1254, Method: STANDARD PLATE
[4] = Test System: AMES SALMONELLA TYPHIMURIUM, Strain/Indicator: TA100, Metabolic Activation: NONE, Method: PREINCUBATION

Cc1cc(C)c(C)cc1C
mutagenic call (Test System: AMES SALMONELLA TYPHIMURIUM, Strain/Indicator: TA97A, Metabolic Activation: NONE, Method: STANDARD PLATE): inactive; negative | mutagenic call (Test System: AMES SALMONELLA TYPHIMURIUM, Strain/Indicator: TA97A, Metabolic Activation: RAT LIVER S-9, AROCLOR 1254, Method: STANDARD PLATE): inactive; negative | mutagenic call [1]: inactive; negative | mutagenic call (Test System: AMES SALMONELLA TYPHIMURIUM, Strain/Indicator: TA98, Metabolic Activation: RAT LIVER S-9, AROCLOR 1254, Method: STANDARD PLATE): inactive; negative | mutagenic call [2]: inactive; negative | mutagenic call (Test System: AMES SALMONELLA TYPHIMURIUM, Strain/Indicator: TA100, Metabolic Activation: RAT LIVER S-9, AROCLOR 1254, Method: STANDARD PLATE): inactive; negative | mutagenic call (Test System: AMES SALMONELLA TYPHIMURIUM, Strain/Indicator: TA102, Metabolic Activation: NONE, Method: STANDARD PLATE): inactive; negative | mutagenic call (Test System: AMES SALMONELLA TYPHIMURIUM, Strain/Indicator: TA102, Metabolic Activation: RAT LIVER S-9, AROCLOR 1254, Method: STANDARD PLATE): inactive; negative

CCC(C)ON=O (centres undefined)
mutagenic call (Test System: AMES SALMONELLA TYPHIMURIUM, Strain/Indicator: TA98, Metabolic Activation: HAMSTER, LIVER, S-9, AROCLOR 1254, Method: STANDARD PLATE): inactive; negative | mutagenic call [1]: inactive; negative | mutagenic call (Test System: AMES SALMONELLA TYPHIMURIUM, Strain/Indicator: TA98, Metabolic Activation: RAT, LIVER, S-9, AROCLOR 1254, Method: STANDARD PLATE): inactive; negative | mutagenic call (Test System: AMES SALMONELLA TYPHIMURIUM, Strain/Indicator: TA100, Metabolic Activation: HAMSTER, LIVER, S-9, AROCLOR 1254, Method: STANDARD PLATE): inactive; negative | mutagenic call [2]: inactive; negative | mutagenic call [3]: inactive; negative | mutagenic call (Test System: AMES SALMONELLA TYPHIMURIUM, Strain/Indicator: TA1535, Metabolic Activation: HAMSTER, LIVER, S-9, AROCLOR 1254, Method: STANDARD PLATE): active; positive | mutagenic call (Test System: AMES SALMONELLA TYPHIMURIUM, Strain/Indicator: TA1535, Metabolic Activation: NONE, Method: STANDARD PLATE): inactive; negative | mutagenic call (Test System: AMES SALMONELLA TYPHIMURIUM, Strain/Indicator: TA1535, Metabolic Activation: RAT, LIVER, S-9, AROCLOR 1254, Method: STANDARD PLATE): active; positive | mutagenic call (Test System: AMES SALMONELLA TYPHIMURIUM, Strain/Indicator: TA1537, Metabolic Activation: HAMSTER, LIVER, S-9, AROCLOR 1254, Method: STANDARD PLATE): inactive; negative | mutagenic call (Test System: AMES SALMONELLA TYPHIMURIUM, Strain/Indicator: TA1537, Metabolic Activation: NONE, Method: STANDARD PLATE): inactive; negative | mutagenic call (Test System: AMES SALMONELLA TYPHIMURIUM, Strain/Indicator: TA1537, Metabolic Activation: RAT, LIVER, S-9, AROCLOR 1254, Method: STANDARD PLATE): inactive; negative | mutagenic call (Test System: MOUSE LYMPHOMA, Strain/Indicator: L5178Y (TK+/TK-), Metabolic Activation: NONE, Method: SUSPENSION/PLATE): active; positive. reevaluation of results: positive | mutagenic call (Test System: MOUSE LYMPHOMA, Strain/Indicator: L5178Y (TK+/TK-), Metabolic Activation: RAT, LIVER, S-9, AROCLOR 1254, Method: SUSPENSION/PLATE): active; positive. reevaluation of results: positive

COC12OOC1(C)Oc1ccccc12 (centres undefined)
mutagenic call [4]: active; positive

CC(Br)c1ccccc1 (centres undefined)
mutagenic call [1]: inactive; negative | mutagenic call [2]: inactive; negative

NC(CS)C(=O)O (centres undefined)
mutagenic call (Test System: AMES SALMONELLA TYPHIMURIUM, Strain/Indicator: TA98, Metabolic Activation: RAT LIVER S-9, CHLOROPHENE, Method: STANDARD PLATE (COMPOUND HEATED AT 250 DEGREES CELSIUS FOR 20 MIN)): inactive; negative

CC(=O)OCc1ccco1
mutagenic call (Test System: AMES SALMONELLA TYPHIMURIUM, Strain/Indicator: TA98, Metabolic Activation: HAMSTER, LIVER, S-9, AROCLOR 1254 (10%), Method: PREINCUBATION): inactive; negative | mutagenic call (Test System: AMES SALMONELLA TYPHIMURIUM, Strain/Indicator: TA98, Metabolic Activation: NONE, Method: PREINCUBATION): inactive; negative | mutagenic call (Test System: AMES SALMONELLA TYPHIMURIUM, Strain/Indicator: TA98, Metabolic Activation: RAT, LIVER, S-9, AROCLOR 1254 (10%), Method: PREINCUBATION): active; positive | mutagenic call (Test System: AMES SALMONELLA TYPHIMURIUM, Strain/Indicator: TA100, Metabolic Activation: HAMSTER, LIVER, AROCLOR 1254 (10%), Method: PREINCUBATION): inactive; negative | mutagenic call [4]: active; positive | mutagenic call (Test System: AMES SALMONELLA TYPHIMURIUM, Strain/Indicator: TA100, Metabolic Activation: RAT, LIVER, S-9, AROCLOR 1254 (10%), Method: PREINCUBATION): active; positive | mutagenic call (Test System: AMES SALMONELLA TYPHIMURIUM, Strain/Indicator: TA1535, Metabolic Activation: HAMSTER, LIVER, S-9, AROCLOR 1254 (10%), Method: PREINCUBATION): inactive; negative | mutagenic call (Test System: AMES SALMONELLA TYPHIMURIUM, Strain/Indicator: TA1535, Metabolic Activation: NONE, Method: PREINCUBATION): inactive; negative | mutagenic call (Test System: AMES SALMONELLA TYPHIMURIUM, Strain/Indicator: TA1535, Metabolic Activation: RAT, LIVER, S-9, AROCLOR 1254 (10%), Method: PREINCUBATION): inactive; negative | mutagenic call (Test System: AMES SALMONELLA TYPHIMURIUM, Strain/Indicator: TA1537, Metabolic Activation: HAMSTER, LIVER, S-9, AROCLOR 1254 (10%), Method: PREINCUBATION): inactive; negative | mutagenic call (Test System: AMES SALMONELLA TYPHIMURIUM, Strain/Indicator: TA1537, Metabolic Activation: NONE, Method: PREINCUBATION): inactive; negative | mutagenic call (Test System: AMES SALMONELLA TYPHIMURIUM, Strain/Indicator: TA1537, Metabolic Activation: RAT, LIVER, S-9, AROCLOR 1254 (10%), Method: PREINCUBATION): inactive; negative

c1ccc2c(c1)ccc1ccc3c(c12)CCC3
mutagenic call [3]: active; positive
